Experiments:
[1] = tested on: p16INK4A, p21CIP1 and SMP30; assay: Western blot of senescence-associated marker proteins in HG-induced HNDFs; assay type: cell-based, human; details: 10 μM with HG (30 mM) for 72 h, immunoblotting
Method: Cells were lysed by either RIPA lysis buffer or nuclear and cytoplasmic extraction reagents (Thermo Fisher Scientific). Protein concentrations were determined by Bio-Rad protein assay reagent (Bio-Rad Laboratories, Hercules, CA). Equal amounts of protein samples (60 μg) were separated by 7-12% SDS-PAGE and the separated proteins were transferred onto polyvinylidene […] (PVDC) membrane overnight. The transferred protein membranes were blocked with 5% non-fat dried milk for 30 min, followed by incubation with specific primary antibodies overnight, and either horseradish peroxidase-conjugated goat anti-rabbit or anti-mouse antibodies for 2 h. The blots were detected using VL Chemi-Smart 3000 (Viogene Biotek, Sunnyvale, CA) with the enhanced chemiluminescence (ECL) western blotting reagent (Millipore, Billerica, MA).

HUVECs [2] = assay: SA-β-gal senescence assay in HG-treated HUVECs; assay type: cell-based, human; details: ANM 10 μM with HG (30 mM) for 48 h; HG alone 6.38-fold
Method: Senescence-associated β-galactosidase (SA-β-gal) activity was determined in formaldehyde-fixed histochemical staining kit according to the manufacturer's instructions (Cell Signaling Technology, Danvers, […]). Briefly, cells were grown in 6-well plates at a density of 5 × 10^4 cells/well, and incubated with HG or test samples for 48 h (HUVECs) or 72 h (HNDFs). After incubation, cells were stained with SA-β-gal staining solution at pH 6.0 overnight and then the development of blue staining was observed and photographed under a bright-field microscope (Motic Electric Group, Xiamen, P.R. China).

[3] = tested on: C. elegans wild type Bristol N2; assay: Life span assay in C. elegans; assay type: in vivo, Caenorhabditis elegans
Method: The wild type Bristol N2 strain was used in this study. C. elegans and Escherichia coli OP50 strain were obtained from the Caenorhabditis Genetic Center, University of Minnesota (Minneapolis-St. Paul, MN). Worms were maintained at 20°C on nematode growth medium (NGM). Hatched worms (L1-stage larvae) were transferred to fresh agar plates and cultured with E. coli OP50 as a food source until they reached the L4 larvae stage. Synchronization of worm cultures was achieved by hypochlorite treatment of gravid hermaphrodites. […] Control worms were treated with 0.1% DMSO. All worms were kept 20°C to develop adulthood. Surviving and dead animals were counted daily (starting from the first day of adulthood) until all worms had died. […] Worms suffering from internal hatch (a defect in egg-laying) and those that crawled off the NGM plate were not included in the life-span assay. During the reproductive period, adult worms were transferred to fresh NGM plates every and then every other day thereafter. Life span assay result was obtained from three independent assays.

HUVECs [4] = assay: Cell viability of HUVECs (MTT assay); assay type: cell-based, human; details: ANM 10 μM or RES 5 μM for 48 h
Method: Human normal dermal fibroblasts ([…]) and human umbilical vein endothelial cells (HUVECs) were obtained from the Bioresource Collection and Research Center (BCRC), Hsinchu, Taiwan. […] Likewise, HUVECs were grown in M-199 medium supplemented with ECGS, heparin, 10% FBS and 100 U/mL penicillin and streptomycin at 37°C in a fully humidified atmosphere of 5% CO2. High-glucose treatment was performed by treating cells with 15 or 30 mM D-glucose (HG) for 24-72 h. […] Cell viability was assessed by MTT colorimetric assay. […] After treatment with HG (15 and 30 mM) in the presence or absence of samples for 24-72 h, culture media was withdrawn and incubated with MTT (1 mg/mL) in fresh medium for 2 h. The MTT formazan crystals were dissolved in 400 μL of DMSO and the samples were measured at 570 nm […] using an ELISA microplate reader (Bio-Tek Instruments, Winooski, VT). The percentage of cell viability (%) was calculated as (A570 of treated cells/A570 of untreated cells) × 100.

[5] = Cell-free DPPH free-radical scavenging assay
Method: Therefore, next to determine whether ANM acts directly as a free-radical scavenger, we performed a cell-free DPPH free-radical scavenging assay.
Figure 5 Antcin M activates Nrf2-dependent anti-oxidant defense in HNDFs A. To determine the free-radical scavenging effect of ANM, cell-free DPPH assay was performed. […] Results expressed as mean ± S.E.M of three indipendent expriments.

[6] = tested on: C. elegans wild type Bristol N2; assay: Stress-resistance assay (Juglone) in C. elegans; assay type: in vivo, Caenorhabditis elegans; details: pretreatment 10 μM for 3 days, then Juglone 250 μM for 2.5, 3.5 and 4.5 h
Method: The wild type Bristol N2 strain was used in this study. C. elegans and Escherichia coli OP50 strain were obtained from the Caenorhabditis Genetic Center, University of Minnesota (Minneapolis-St. Paul, MN). Worms were maintained at 20°C on nematode growth medium (NGM). Hatched worms (L1-stage larvae) were transferred to fresh agar plates and cultured with E. coli OP50 as a food source until they reached the L4 larvae stage. Synchronization of worm cultures was achieved by hypochlorite treatment of gravid hermaphrodites.
Age synchronized L1 larvae were incubated with liquid S-basal medium containing E. coli OP50 at a density of 1 × 10^9 cells. Ml and 10 and 20 μM ANM or 0.01% DMSO (vehicle control) for 3 days. Subsequently, adult worms were subjected to oxidative stress assay. To induce oxidative stress, worms were incubated with Juglone (5-hydroxyl-1,4-naphthoquinone; Sigma), an ROS-generating agent. ANM treated and control worms were transferred to S-basal medium containing 250 μM Juglone, and incubated from 2.5, 3.5 and 4.5 h. After treatment, viable worms were scored. […] The test was performed triplicate.

HNDFs [7] = assay: Cell-cycle analysis by flow cytometry (PI) in HG-induced HNDFs; assay type: cell-based, human; details: ANM 10 μM with HG (30 mM) for 72 h; HG 71.2%, NG 46.5%
Method: HNDFs at a density of 5 × 10^5 cells in 10 cm dishes were treated with ANM or NAC in the presence or absence of HG for 72 h. Cells were collected, washed with PBS and fixed in 95% cold-ethanol, and kept at −20°C overnight. The cell pellet was then washed again with PBS and centrifuged at 1500 × g for 5 min. The pellet was re-suspended in 1 mL PI/Triton X-100 (20 μg/mL PI, 0.1% Triton X-100 and 0.2 mg/mL RNAse) and incubated on ice for 30 min. The total cellular DNA content was analyzed with a flow cytometer (Beckman Coulter FC500). Data were acquired and analyzed using CXP software (Beckman Coulter).

HNDFs [8] = assay: Flow cytometric detection of intracellular ROS (DCFH2-DA) in HNDFs; assay type: cell-based, human
Method: Intracellular ROS accumulation was determined using the dye DCFH2-DA following a procedure described earlier. Briefly, HNDFs (1 × 10^5 cells/well) were seeded in 6-well plates and incubated with HG in the presence or absence of test samples for 24 h. At the end of the incubation, the culture supernatant was removed and cells were washed twice with PBS. DCFH2-DA (10 μM) was mixed with 500 μL MEM and added to the culture plate. After incubation for 30 minutes, cells were collected by trypsin and the fluorescence shift was quantified using a flow cytometer (Beckman Coulter). Data were acquired and analyzed using CXP software (Beckman Coulter).

SMILES: C=C(CCC(C)C1CCC2C3=C(C(=O)C(O)C21C)C1(C)CCC(O)C(C)C1CC3)C(C)C(=O)O (centres unmarked) [ANM, antcin M]
- HG-induced upregulation of p16INK4A and p21CIP1 proteins [1]: significantly downregulated
- SMP30 protein expression [1]: rescued HG-induced SMP30 depletion
- SA-β-gal staining (endothelial senescence) (HUVECs [2]): 1.36 fold
- life span of C. elegans under normal condition ([3]; ANM 10 μM or RES 438 μM alone, compared to the control): significantly (P < 0.026) prolonged the life span
- life span of C. elegans under high glucose ([3]; high glucose (50 mM) with ANM (100 μM as printed elsewhere in the source), vs high glucose alone): significant (P < 0.0001) increase of life span
- cell viability of HUVECs, treatment alone (HUVECs [4]): did not affect cell viability
- free-radical scavenging in the cell-free system [5]: failed to scavenge free radicals
- survival rate of worms exposed to oxidative stress [6]: significantly increased the survival rate
- cell population in the G0/G1 phase (HNDFs [7]): 49.5%
- HG-induced ROS generation (HNDFs [8]; ANM 10 μM or NAC 100 μM with HG (30 mM) for 24 h, HG alone 426.2%): 200.8%
- ROS generation, treatment alone (HNDFs [8]; ANM 10 μM or NAC 100 μM without HG, 24 h): did not significantly increase ROS generation
